The text below walks through data of patent US10144706B2 (BRISTOL-MYERS SQUIBB COMPANY, priority 2016, dated 2018).

In the assay the target is T1, PD-1/PD-L1 interaction (PD-1-Ig / PD-L1-His) (Homo sapiens, UniProt Q9NZQ7).
T1 construct: hPDL1(18-239)-TVMV-His; TVMV protease site linker (C); made in house; host or cells: HEK293T
The assay is described as follows: PD-1/PD-L1 Homogenous Time-Resolved Fluorescence (HTRF) binding assay. The note with it: PD-L1-His 10 nM, PD-1-Ig 20 nM, read-out: Range or IC50. In a few lines:
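Human PD-L1-His (10 nM final) was pre-incubated with inhibitor for 15 min, then PD-1-Ig (20 nM final) was added for a further 15 min in dPBS with 0.1% BSA and 0.05% Tween-20. Binding was detected by HTRF using Eu-cryptate anti-Ig (1 nM) and APC anti-His (20 nM).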

Like-named read-outs stand apart in the source and are kept apart here.

T1 sequence (Q9NZQ7 with tags, fused parts or gaps): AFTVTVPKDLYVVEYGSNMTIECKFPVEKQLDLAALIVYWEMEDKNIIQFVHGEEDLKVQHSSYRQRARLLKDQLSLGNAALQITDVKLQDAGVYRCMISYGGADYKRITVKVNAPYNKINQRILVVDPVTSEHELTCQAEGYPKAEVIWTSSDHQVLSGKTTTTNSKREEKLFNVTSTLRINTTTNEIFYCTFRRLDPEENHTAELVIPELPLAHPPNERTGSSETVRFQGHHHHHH

As usually defined, the IC50 is the concentration that inhibits the measured activity by half. On to `Cc1c(OCCCN2CC[C@@H](O)C2)cccc1-c1cccc(OCCCN2C[C@H](O)C[C@H]2C(=O)O)c1C` [Example 2039, (2S,4R)-4-hydroxy-1-(3-((3′-(3-((R)-3-hydroxypyrrolidin-1-yl)propoxy)-2,2′-dimethyl-[1,1′-biphenyl]-3-yl)oxy)propyl)pyrrolidine-2-carboxylic acid], for which the concentration for half-maximal inhibition (IC50) (IC50 range class) lay within 1000 to 10000 nM.

For the molecule `Cc1c(OCCCNCCc2ccccc2)cccc1-c1cccc(OCCCN2CC[C@@H](O)C2)c1C` [Example 2041, (R)-1-(3-((2,2′-dimethyl-3′-(3-(phenethylamino)propoxy)-[1,1′-biphenyl]-3-yl)oxy)propyl)pyrrolidin-3-ol], under “IC50 range class”, the IC50 lay within 90.1 to 1000 nM.

With `Cc1c(OCCCNCCCO)cccc1-c1cccc(OCCCN2CC[C@@H](O)C2)c1C` [Example 2042, (R)-1-(3-((3′-(3-((3-hydroxypropyl)amino)propoxy)-2,2′-dimethyl-[1,1′-biphenyl]-3-yl)oxy)propyl)pyrrolidin-3-ol], under “IC50 range class”, the IC50 lay within 20.1 to 90 nM.

With `Cc1c(OCCCNCCc2cn(C)cn2)cccc1-c1cccc(OCCCN2CC[C@@H](O)C2)c1C` [Example 2043, (R)-1-(3-((2,2′-dimethyl-3′-(3-((2-(1-methyl-1H-imidazol-4-yl)ethyl)amino)propoxy)-[1,1′-biphenyl]-3-yl)oxy)propyl)pyrrolidin-3-ol], for the setting “IC50 range class”, the IC50 was 90.1 to 1000 nM.

Take `Cc1c(OCCCNCC2CCN(C)CC2)cccc1-c1cccc(OCCCN2CC[C@@H](O)C2)c1C` [Example 2044, (R)-1-(3-((2,2′-dimethyl-3′-(3-(((1-methylpiperidin-4-yl)methyl)amino)propoxy)-[1,1′-biphenyl]-3-yl)oxy)propyl)pyrrolidin-3-ol]: for the setting “IC50 range class”, the IC50 lay in the range of 90.1 to 1000 nM.

For the molecule `Cc1c(OCCCNC[C@H](O)C(=O)O)cccc1-c1cccc(OCCCN2CC[C@@H](O)C2)c1C` [Example 2045, (S)-2-hydroxy-3-((3-((3′-(3-((R)-3-hydroxypyrrolidin-1-yl)propoxy)-2,2′-dimethyl-[1,1′-biphenyl]-3-yl)oxy)propyl)amino)propanoic acid], under “IC50 range class”, the 50% inhibitory concentration (IC50) is 90.1 to 1000 nM.

With `Cc1c(OCCCNCC(C)(C)CO)cccc1-c1cccc(OCCCN2CC[C@@H](O)C2)c1C` [Example 2046, (R)-1-(3-((3′-(3-((3-hydroxy-2,2-dimethylpropyl)amino)propoxy)-2,2′-dimethyl-[1,1′-biphenyl]-3-yl)oxy)propyl)pyrrolidin-3-ol], the IC50 (IC50 range class) lay within 20.1 to 90 nM.

As to `Cc1c(OCCCNC(CO)c2ccncc2)cccc1-c1cccc(OCCCN2CC[C@@H](O)C2)c1C` (stereo partly drawn) [Example 2047, (3R)-1-(3-((3′-(3-((2-hydroxy-1-(pyridin-4-yl)ethyl)amino)propoxy)-2,2′-dimethyl-[1,1′-biphenyl]-3-yl)oxy)propyl)pyrrolidin-3-ol], the 50% inhibitory concentration (IC50) (IC50 range class) lay within 90.1 to 1000 nM.

Take `CC(=O)NCCNCCCOc1cccc(-c2cccc(OCCCN3CC[C@@H](O)C3)c2C)c1C` [Example 2048, (R)—N-(2-((3-((3′-(3-(3-hydroxypyrrolidin-1-yl)propoxy)-2,2′-dimethyl-[1,1′-biphenyl]-3-yl)oxy)propyl)amino)ethyl)acetamide]: the IC50 (IC50 range class) fell in the range of 20.1 to 90 nM.

Regarding `Cc1c(OCCCN(C)Cc2cccnc2)cccc1-c1cccc(OCCCN2CC[C@@H](O)C2)c1C` [Example 2049, (R)-1-(3-((2,2′-dimethyl-3′-(3-(methyl(pyridin-3-ylmethyl)amino)propoxy)-[1,1′-biphenyl]-3-yl)oxy)propyl)pyrrolidin-3-ol], the IC50 (IC50 range class) fell in the range of 90.1 to 1000 nM.

As for `Cc1c(OCCCNCc2cccnc2)cccc1-c1cccc(OCCCN2CC[C@@H](O)C2)c1C` [Example 2050, (R)-1-(3-((2,2′-dimethyl-3′-(3-((pyridin-3-ylmethyl)amino)propoxy)-[1,1′-biphenyl]-3-yl)oxy)propyl)pyrrolidin-3-ol], the IC50 (IC50 range class) was 1000 to 10000 nM.

With `Cc1c(OCCCNC[C@@H](O)CO)cccc1-c1cccc(OCCCN2CC[C@@H](O)C2)c1C` [Example 2052, (R)-3-((3-((3′-(3-((R)-3-hydroxypyrrolidin-1-yl)propoxy)-2,2′-dimethyl-[1,1′-biphenyl]-3-yl)oxy)propyl)amino)propane-1,2-diol], the IC50 (IC50 range class) is 90.1 to 1000 nM.

For `CCCN(CCO)CCCOc1cccc(-c2cccc(OCCCN3CC[C@@H](O)C3)c2C)c1C` [Example 2053, (R)-1-(3-((3′-(3-((2-hydroxyethyl)(propyl)amino)propoxy)-2,2′-dimethyl-[1,1′-biphenyl]-3-yl)oxy)propyl)pyrrolidin-3-ol], the IC50 (IC50 range class) is 90.1 to 1000 nM.

With `Cc1c(OCCCN(C)CCC(N)=O)cccc1-c1cccc(OCCCN2CC[C@@H](O)C2)c1C` [Example 2054, (R)-3-((3-((3′-(3-(3-hydroxypyrrolidin-1-yl)propoxy)-2,2′-dimethyl-[1,1′-biphenyl]-3-yl)oxy)propyl)(methyl)amino)propanamide], where the note is “IC50 range class”, the IC50 was 20.1 to 90 nM.

For the molecule `Cc1c(OCCCN[C@@H](CO)C(C)C)cccc1-c1cccc(OCCCN2CC[C@@H](O)C2)c1C` [Example 2055, (R)-1-(3-((3′-(3-(((R)-1-hydroxy-3-methylbutan-2-yl)amino)propoxy)-2,2′-dimethyl-[1,1′-biphenyl]-3-yl)oxy)propyl)pyrrolidin-3-ol], the IC50 (IC50 range class) fell in the range of 90.1 to 1000 nM.

Turning to `Cc1c(OCCCN(Cc2ccccn2)Cc2ccccn2)cccc1-c1cccc(OCCCN2CC[C@@H](O)C2)c1C` [Example 2056, (R)-1-(3-((3′-(3-(bis(pyridin-2-ylmethyl)amino)propoxy)-2,2′-dimethyl-[1,1′-biphenyl]-3-yl)oxy)propyl)pyrrolidin-3-ol], the IC50 (numeric IC50) worked out at 3180 nM.

Turning to `Cc1c(OCCCN[C@H](CO)c2ccccc2)cccc1-c1cccc(OCCCN2CC[C@@H](O)C2)c1C` [Example 2057, (R)-1-(3-((3′-(3-(((S)-2-hydroxy-1-phenylethyl)amino)propoxy)-2,2′-dimethyl-[1,1′-biphenyl]-3-yl)oxy)propyl)pyrrolidin-3-ol], the concentration for half-maximal inhibition (IC50) (IC50 range class) lay within 90.1 to 1000 nM.

As to `Cc1c(OCCCN[C@H](CO)C(C)C)cccc1-c1cccc(OCCCN2CC[C@@H](O)C2)c1C` [Example 2058, (R)-1-(3-((3′-(3-(((S)-1-hydroxy-3-methylbutan-2-yl)amino)propoxy)-2,2′-dimethyl-[1,1′-biphenyl]-3-yl)oxy)propyl)pyrrolidin-3-ol], the IC50 (IC50 range class) lay in the range of 90.1 to 1000 nM.

For the molecule `Cc1c(OCCCNCCn2cc(Cl)cn2)cccc1-c1cccc(OCCCN2CC[C@@H](O)C2)c1C` [Example 2060, (R)-1-(3-((3′-(3-((2-(4-chloro-1H-pyrazol-1-yl)ethyl)amino)propoxy)-2,2′-dimethyl-[1,1′-biphenyl]-3-yl)oxy)propyl)pyrrolidin-3-ol], the IC50 (IC50 range class) lay within 20.1 to 90 nM.

Consider `Cc1c(OCCCNCCc2ncn(C)c2Cl)cccc1-c1cccc(OCCCN2CC[C@@H](O)C2)c1C` [Example 2061], for which the IC50 (IC50 range class) is 20.1 to 90 nM.

With `Cc1c(OCCCN(C)Cc2ccccn2)cccc1-c1cccc(OCCCN2CC[C@@H](O)C2)c1C` [Example 2062, (R)-1-(3-((2,2′-dimethyl-3′-(3-(methyl(pyridin-2-ylmethyl)amino)propoxy)-[1,1′-biphenyl]-3-yl)oxy)propyl)pyrrolidin-3-ol], where the note is “IC50 range class”, the IC50 is 20.1 to 90 nM.

Regarding `Cc1c(OCCCN2CCN(CCO)CC2)cccc1-c1cccc(OCCCN2CC[C@@H](O)C2)c1C` [Example 2063, (R)-1-(3-((3′-(3-(4-(2-hydroxyethyl)piperazin-1-yl)propoxy)-2,2′-dimethyl-[1,1′-biphenyl]-3-yl)oxy)propyl)pyrrolidin-3-ol], the IC50 (IC50 range class) is 20.1 to 90 nM.

Consider `Cc1c(OCCCN(C)Cc2ccncc2)cccc1-c1cccc(OCCCN2CC[C@@H](O)C2)c1C` [Example 2064, (R)-1-(3-((2,2′-dimethyl-3′-(3-(methyl(pyridin-4-ylmethyl)amino)propoxy)-[1,1′-biphenyl]-3-yl)oxy)propyl)pyrrolidin-3-ol], for which the IC50 (IC50 range class) lay within 20.1 to 90 nM.

As for `Cc1c(OCCCNCCc2ccc(N)cc2)cccc1-c1cccc(OCCCN2CC[C@@H](O)C2)c1C` [Example 2065, (R)-1-(3-((3′-(3-((4-aminophenethyl)amino)propoxy)-2,2′-dimethyl-[1,1′-biphenyl]-3-yl)oxy)propyl)pyrrolidin-3-ol], where the note is “IC50 range class”, the IC50 was in the range of 20.1 to 90 nM.

Take `Cc1c(OCCCNC2CCN(C)CC2)cccc1-c1cccc(OCCCN2CC[C@@H](O)C2)c1C` [Example 2066, (R)-1-(3-((2,2′-dimethyl-3′-(3-((1-methylpiperidin-4-yl)amino)propoxy)-[1,1′-biphenyl]-3-yl)oxy)propyl)pyrrolidin-3-ol]: the IC50 (IC50 range class) was 90.1 to 1000 nM.

As to `Cc1c(OCCCNC2CCN(CCO)CC2)cccc1-c1cccc(OCCCN2CC[C@@H](O)C2)c1C` [Example 2067, (R)-1-(3-((3′-(3-((1-(2-hydroxyethyl)piperidin-4-yl)amino)propoxy)-2,2′-dimethyl-[1,1′-biphenyl]-3-yl)oxy)propyl)pyrrolidin-3-ol], the IC50 (IC50 range class) was 20.1 to 90 nM.

For `Cc1c(OCCCN(CCO)CCO)cccc1-c1cccc(OCCCN2CC[C@@H](O)C2)c1C` [Example 2068, (R)-2,2′-((3-((3′-(3-(3-hydroxypyrrolidin-1-yl)propoxy)-2,2′-dimethyl-[1,1′-biphenyl]-3-yl)oxy)propyl)azanediyl)bis(ethan-1-ol)], the IC50 (IC50 range class) was 90.1 to 1000 nM.

On to `Cc1c(OCCCN[C@@H](CO)c2ccccc2)cccc1-c1cccc(OCCCN2CC[C@@H](O)C2)c1C` [Example 2069, (R)-1-(3-((3′-(3-(((R)-2-hydroxy-1-phenylethyl)amino)propoxy)-2,2′-dimethyl-[1,1′-biphenyl]-3-yl)oxy)propyl)pyrrolidin-3-ol], for which the IC50 (IC50 range class) is 90.1 to 1000 nM.

Consider `Cc1c(OCCCN2CCC(N(C)C)CC2)cccc1-c1cccc(OCCCN2CC[C@@H](O)C2)c1C` [Example 2070, (R)-1-(3-((3′-(3-(4-(dimethylamino)piperidin-1-yl)propoxy)-2,2′-dimethyl-[1,1′-biphenyl]-3-yl)oxy)propyl)pyrrolidin-3-ol], for which the IC50 (IC50 range class) is 90.1 to 1000 nM.
